Where two headings read alike, the source gives them in different places.
How the values were obtained:
[1] = test system: Pentobarbital-Induced Cardiac Failure in the Dog; assay: Pentobarbital-induced Cardiac Failure in the Dog; type: in vivo; settings: Canis lupus familiaris, iv, anesthetized dog, read-out: ED50 (dose i.v. to give a 50% increase in dP/dt)
Description: Pentobarbital-induced Cardiac Failure in the Dog
A dog of either sex was anesthetized with Na pentobarbital, 30-35 mg/kg i.v. The trachea was intubated and the animal was respired at a rate of 20 breaths/min (stroke volume=15 cc/kg). Both femoral veins were cannulated. One cannula was used for infusion of pentobarbital to induce and maintain failure, the other for injection of test compounds. A cannual was inserted into the aorta via a femoral artery and the cannula was attached to a blood pressure transducer for measurement of systolic, diastolic and mean aortic blood pressure. A Millar pressure-tip catheter was inserted into the other femoral artery and advanced into the left ventricle to record intraventricular pressure and dP/dt. Subdermal needle electrodes were used to record a lead II electrocardiogram and heart rate.
Following a stabilization period of at least 30 min, experimental failure was induced by the i.v. infusion of Na pentobarbital, 0.75 mg/kg/min in 0.2 mL of saline/min, until a 40-50% decrease in peak positive dP/dt was obtained. The failure state was maintained at this level throughout the experiment by continuous infusion of Na pentobarbital, 0.11-0.15 mg/kg/min. Once the maintenance infusion was started, at least 15 min were allowed to elapse before test drugs were administered.
Test compounds were prepared in N saline. Increasingly higher doses were given i.v. at 30 min-1 hr intervals in order to determine a therapeutic (50% increase in dP/dt) to toxic (appearance of arrhythmias) ratio where possible.
Using this method, the following representative compounds of formula I were effective for increasing the cardiac contractility of the heart (the amount of test compound in mg per kg of body weight administered i.v. to give a 50% increase in dP/dt.

[2] = test system: Isolated Cat Papillary Muscle; assay: Test for Cardiotonic Activity in Isolated Cat Papillary Muscle; type: cell-based; settings: Felis catus; for activation at 100 µM: read-out: % increase (force of contraction); for EC50: increase in force of contraction, stimulated at 0.5 Hz, 37° C.
Description: Test for Cardiotonic Activity in Isolated Cat Papillary Muscle
A cat of either sex was anesthetized with Na pentobarbital, 25-30 mg/kg i.v. The heart was rapidly removed and placed in cool Tyrode's solution which had been equilibrated with 95% O2 -5% CO2. The right ventricle was opened by cutting down the sides and around the apex so that the free wall could be folded back on the atriventricular groove. Usually at least three suitably-sized papillary muscles were found (1 mm or less in thickness). Threads were tied around the chordae tendonae and the base of the muscle just above its point of insertion into the ventricular wall. The chordae were cut, and the muscle was removed along with a small button of ventricular wall. If a sufficient number of papillary muscles were not present, trabeculae carnae could also be used. The best ones were usually found inserting just under the valve.
The preparations were mounted in tissue baths containing Tyrode's solution at 37° C. bubbled with 95% O2 -5% CO2. One thread was affixed to a tissue holder incorporating a pair of platinum electrodes and the other thread was attached to a force displacement transducer. Initial tension placed on the preparation was 0.2 g (less for very small muscles). The preparations were stimulated with square-wave pulses, 2-4 msec. in duration and 10% above threshold voltage, at a rate of 0.5 Hz. […] The preparations were then allowed to equilibrate for one hour with frequent changes of the bathing fluid (10-15 min. intervals). The test compound was added to the bath in 0.1 mL of vehicle and incubated with the preparation for 15 min. or until peak effect was attained.
Using this method, the following representative compounds of formula I were effective for increasing the force of contraction of the papillary muscle.

Row | SMILES | ED50 [1] [mg/kg] | EC50 [2] [µM] | also measured
1 | CCNc1nc(C)nc(O)c1C(C)C [Example 14, 6-(Ethylamino)-2-methyl-5-(1-methylethyl)-4-pyrimidinol] | 0.04 |  | activation at 100 µM ([2]; at 10^-4 M): 86%
2 | Cc1nc(O)c(Cl)c(NCCc2ccccc2)n1 [Example 4, 5-Chloro-2-methyl-6-[(2-phenylethyl)amino]-4-pyrimidinol] | 0.04 | 1.5 | 
3 | Cc1nc(O)c(C)c(NCc2ccco2)n1 [Example 11, 6-[(2-Furanylmethyl)amino]-2,5-dimethyl-4-pyrimidinol] |  | 10 | 
4 | Cc1nc(O)c(C(C)C)c(NCC2CC2)n1 [Example 17, 6-[(Cyclopropylmethyl)amino]-2-methyl-5-(1-methylethyl)-4-pyrimidinol] | 0.5 |  | activation at 100 µM ([2]; at 10^-4 M): 185%
5 | CCNc1[nH]c(C)nc(=O)c1Br [Example 15, 5-Bromo-1,4-dihydro-6-(ethylamino)-2-methyl-4-pyrimidinone] | 0.01 | 2.8 | 
6 | Cc1nc(O)c(Br)c(NCCc2ccccc2)n1 [Example 9, 5-Bromo-2-methyl-6-[(2-phenylethyl)amino]-4-pyrimidinol] | 0.03 |  | EC50 ([2]; unit inferred): 13 µM
7 | Cc1nc(O)c(Br)c(NCCc2ccncc2)n1 [Example 10, 5-Bromo-2-methyl-6-[[2-(4-pyridinyl)ethyl]amino]-4-pyrimidinol] |  |  | EC50 ([2]; unit inferred): 250 µM
8 | Cc1nc(O)c(C)c(NCC2CC2)n1 [Example 13, 6-[(Cyclopropylmethyl)amino]-2,5-dimethyl-4-pyrimidinol] | 0.05 | 3.7 | 
9 | Cc1nc(=O)c(F)c(NCc2cccnc2)[nH]1 [Example 6, 5-Fluoro-1,4-dihydro-2-methyl-6-[(3-pyridinylmethyl)amino]-4-pyrimidinone] |  |  | activation at 100 µM ([2]; at 10^-4 M): 69%
10 | Cc1nc(O)c(C(C)C)c(NCc2cccnc2)n1 [Example 7, 2-Methyl-5-(1-methylethyl)-6-[(3-pyridinylmethyl)amino]-4-pyrimidinol] | 0.13 | 7.4 | 
11 | Cc1nc(O)c(Br)c(NCCO)n1 [Example 16, 5-Bromo-6-[(2-hydroxyethyl)amino]-2-methyl-4-pyrimidinol] |  | 8.2 | 
12 | Cc1nc(=O)c(C)c(NCCc2cccn2C)[nH]1 [Example 2, 1,4-Dihydro-2,5-dimethyl-6-[[2-(1-methyl-1H-pyrrol-2-yl)ethyl]amino]-4-pyrimidinone] |  | 2.9 | 
13 | CCNc1nc(C)nc(O)c1C [Example 12, 6-(Ethylamino)-2,5-dimethyl-4-pyrimidinol] | 0.04 | 5 | 
14 | Cc1nc(O)c(Br)c(NCc2cccnc2)n1 [Example 1, 5-Bromo-2-methyl-6-[(3-pyridinylmethyl)amino]-4-pyrimidinol] | 0.012 | 2.5 | 
15 | Cc1nc(O)c(C)c(NCCc2ccncc2)n1 [Example 8, 2,5-Dimethyl-6-[(2-(4-pyridinyl)ethyl)amino]-4-pyrimidinol] |  |  | activation at 100 µM ([2]; at 10^-4 (unit inferred)): 52%
16 | Cc1nc(O)c(Cl)c(NCc2cccnc2)n1 [Example 3, 5-Chloro-2-methyl-6-[(3-pyridinylmethyl)amino]-4-pyrimidinol] | 0.02 | 1 | 
17 | Cc1nc(=O)c(C)c(NCc2cccnc2)[nH]1 [Example 5, 1,4-Dihydro-2,5-dimethyl-6-[(3-pyridinylmethyl)amino]-pyrimidine-4-one] | 0.05 | 11 | 
